From patent publication US4767624A, “Decubital remedy” (priority 1985, dated 1988)
Read-outs that look alike come from different tables or passages of the source.

Tests used:
Wistar rats = assay: Subacute oral toxicity, rats; type: in vivo; details: oral, 40, 200 and 1,000 mg/kg/day, 5 weeks
Procedure: (§1) Ubidecarenone was continuously and orally administered to male and female Wistar rats at doses of 40, 200 and 1,000 mg/kg/day for 5 weeks and to male and female rabbits at doses of 60 and 600 mg/kg/day for 23 days.

[1] = cited from earlier work
rabbits = assay: Subacute oral toxicity, rabbits; type: in vivo; details: 60 and 600 mg/kg/day, 23 days
Procedure: as §1

[2] = Challenge (Adjuvante & patch method); type: in vivo; details: induction 5% acetone
Source text: Challenge Induction: 5% acetone
(Adjuvante & patch method)

Blepharo-irritation = type: in vivo; details: 1% in squalane
skin [3] = assay: Patch test; type: in vivo; details: 1% in squalane
[4] = system: radiation dermatitis or radiation ulcers; details: previous trial use, publications (1) and (2); cited from earlier work
[5] = Optical challenge (Adjuvante & strip method); type: in vivo; details: induction 10% acetone
Source text: |(Adjuvante & strip method)

heart muscle = details: ischemic state; cited from earlier work
skin [6] = assay: Primary cutaneous irritation; type: in vivo
[7] = Stability upon cutaneous administration; type: physicochemical
skin [8] = assay: Cumulative irritation; type: in vivo; details: 1% in squalane
Phototoxicity = type: in vivo; details: 1% and 10% in squalane

COC1=C(OC)C(=O)C(C/C=C(\C)CC/C=C(\C)CC/C=C(\C)CC/C=C(\C)CC/C=C(\C)CC/C=C(\C)CC/C=C(\C)CC/C=C(\C)CC/C=C(\C)CCC=C(C)C)=C(C)C1=O [Ubidecarenone]
difference from controls in general conditions, blood test, urine test and morphological observation (Wistar rats): Neither rats nor rabbits developed any difference compared with their respective controls | solubility ([1]; methanol): scarcely soluble | solubility ([1]; oil): oil-soluble | solubility ([1]; water): scarcely soluble | difference from controls in general conditions, blood test, urine test and morphological observation (rabbits): Neither rats nor rabbits developed any difference compared with their respective controls | Challenge ([2]; 1% in acetone): 0/10 | Challenge, conclusion ([2]; 5% and 1% in acetone): low challenge | Challenge ([2]; 5% in acetone): 0/10 | Blepharo-irritation, conclusion (Blepharo-irritation): low blepharo-irritation | Patch test (skin [3]): 0/54 | Patch test, conclusion (skin [3]): low skin irritation | effectiveness in radiation dermatitis or radiation ulcers [4]: superb effectiveness | Optical challenge ([5]; 0.5% in acetone): 0/5 | Optical challenge, conclusion ([5]; 0.5-10% in acetone): low optical challenge | Optical challenge ([5]; 1% in acetone): 0/5 | Optical challenge ([5]; 2% in acetone): 0/5 | Optical challenge ([5]; 5% in acetone): 0/5 | Optical challenge ([5]; 10% in acetone): 0/5 | damage of ischemic cardiac muscular tissue (heart muscle): reduce the damage | percent oxygen utilization in heart muscle (heart muscle): improve the percent oxygen utilization in heart muscle | Primary cutaneous irritation (skin [6]; 1% in squalane): 0.1 | Primary cutaneous irritation, conclusion (skin [6]; 1% in squalane): low skin irritation | irritation to the skin (skin [6]; cutaneous administration, summary of Table 1): low irritation to the skin | stability upon cutaneous administration [7]: good stability | Cumulative irritation (skin [8]): 0.3 | Cumulative irritation, conclusion (skin [8]): low skin irritation | Phototoxicity, conclusion (Phototoxicity): low phototoxicity
